Laboratory results: US20080064071A1, “Zwitterionic detergents for the storage and use of DNA polymerases” (priority 2006, published 2008)
“And” between values parts separate entries of the source, which are not always exact repeats. Equal entries are not always repeated.

Assays:
[1] = tested on: Pfu fusion DNA polymerase; test: SYBR Green QPCR with Pfu fusion DNA polymerase; assay type: biochemical, Pyrococcus furiosus; conditions: for Effective range, concentration of each detergent in combination, SYBR Green QPCR: combination CHAPS (0.1%) + Anz. 3-10 (0.02-0.15%); for Optimal range, concentration of each detergent in combination, SYBR Green QPCR: combination CHAPS (0.1%) + Anz. 3-10 (0.05-0.15%); for Effective range, Detergent 1 (single detergent), SYBR Green QPCR / Optimal range, Detergent 1 (single detergent), SYBR Green QPCR: detergent alone; for QPCR amplification efficiency, total fluorescence and Ct values versus 0.1% Triton X100 (FIG. 7) / amplification efficiency, total fluorescence and Ct values (FIG. 8): 0.5% detergent; for amplification efficiency, total fluorescence and Ct values (FIG. 8): aldolase and GDH gene targets
Method: QPCR reactions contained DNA or cDNA template, varying amounts of primer (see Table 3 below), 300 uM each dNTP, 4 ng/ul exo Pfu fusion, 6 ng/ul hot start IgG, 0.4ng/ul single-stranded DNA-binding protein, 1× Pfu fusion DF-buffer II (pH 9), 4% DMSO, and 8% glycerol. QPCR reactions were supplemented with 0.1% Triton X100 or zwitterionic detergent, and with 0.5× SYBR Green (Molecular Probes S-7567). Reactions were cycled on the MX3000P Real-Time PCR System using the following conditions: (1 cycle) 95° C. 5 min; (40 cycles) 95° C. 10 sec, 60° C. 30 sec.

Pfu DNA polymerase = biological target: T1, Pfu DNA polymerase (Pyrococcus furiosus, UniProt P61875); test: Endpoint PCR with Pfu DNA polymerase, detergent/surfactant added to detergent-free PCR buffer; assay type: biochemical; conditions: for product yields on addition of zwitterionic detergent to PCR buffer (FIG. 5): versus buffer lacking detergent, which failed to generate product
T1 sequence (P61875 1-775): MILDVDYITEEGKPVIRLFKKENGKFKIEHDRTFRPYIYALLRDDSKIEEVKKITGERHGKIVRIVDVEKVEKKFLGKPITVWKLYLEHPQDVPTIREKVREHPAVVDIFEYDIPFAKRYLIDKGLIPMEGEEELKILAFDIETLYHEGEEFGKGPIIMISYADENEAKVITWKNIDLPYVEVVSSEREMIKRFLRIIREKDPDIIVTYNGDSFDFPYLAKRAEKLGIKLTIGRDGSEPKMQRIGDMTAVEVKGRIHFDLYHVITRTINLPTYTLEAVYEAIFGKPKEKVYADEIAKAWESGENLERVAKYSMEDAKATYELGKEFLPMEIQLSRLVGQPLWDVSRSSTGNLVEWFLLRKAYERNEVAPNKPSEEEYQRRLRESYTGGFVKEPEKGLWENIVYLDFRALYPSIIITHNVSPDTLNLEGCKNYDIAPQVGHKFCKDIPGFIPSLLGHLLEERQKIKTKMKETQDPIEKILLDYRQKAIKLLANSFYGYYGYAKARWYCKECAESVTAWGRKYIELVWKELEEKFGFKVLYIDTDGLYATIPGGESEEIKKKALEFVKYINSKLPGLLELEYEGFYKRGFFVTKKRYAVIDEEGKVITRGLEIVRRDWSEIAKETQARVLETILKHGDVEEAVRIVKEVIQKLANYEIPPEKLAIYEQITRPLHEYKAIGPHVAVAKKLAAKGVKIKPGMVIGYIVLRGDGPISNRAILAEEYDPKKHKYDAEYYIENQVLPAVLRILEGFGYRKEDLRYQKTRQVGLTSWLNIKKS
Method: Pfu (exo+ and exo−) fusion DNA polymerase (e.g., as described in U.S. patent application Ser. No.: 11/488,535, filed Jul. 17, 2006, and herein incorporated by reference in its entirety), cPfu DNA polymerase (Stratagene catalog #600154), and PEF were purified using standard production protocols (no detergent present), except that non-ionic detergents were omitted from the final storage buffers. Enzymes were stored at −20° C. in 50 mM Tris-HCl (pH 8.2), 0.1 mM EDTA, 1 mM DTT, and 50% glycerol. DNA polymerase storage buffers were additionally supplemented with one or more zwitterionic detergents, in percentages (v/v) ranging from 0.05% to 0.5%.
PCR reaction buffers were prepared without non-ionic detergents (“DF buffer”, detergent-free buffer). For example, 1× cPfu DF-buffer contains 10 mM KCl, 10 mM (NH4)2SO4, 20 mM Tris HCl (pH 8.8), 2 mM MgSO4, and 100 ug/ml BSA. Detergent-free versions of Pfu fusion buffers were also prepared, and consisted of: 40 mM Tris-SO4 (pH 10), 15 mM K2SO4, 8 mM (NH4)2SO4, 2 mM MgSO4 (1× Pfu fusion DF-buffer I) or 30 mM Tris-SO4 (pH 10), 40 mM K2SO4, 1.5 mM (NH4)2SO4, 2 mM MgSO4 (1× Pfu fusion DF-buffer II).
PCR reaction buffers were supplemented with 0.1% Triton X100 (non-ionic detergent) or with one or more zwitterionic detergents or non-detergent surfactants. For example, zwitterionic detergents CHAPS, CHAPSO, 3-10, and 3-12 were obtained from AnaTrace, Inc. (Maumee, Ohio) and added to DF-buffers in percentages (v/v) ranging from 0.05% to 0.5%. The non-detergent surfactant, Surfynol 465, was purchased from Air Products and used in a similar fashion.
For the 0.9 kb and 6 kb systems, PCR reactions (50 ul) were conducted with 40 ng cPfu DNA polymerase in IX cPfu DF-buffer or with 28 ng or 224 ng Pfu fusion DNA polymerase in 1× Pfu fusion DF-buffer I or DF-buffer II, respectively. PCR reactions also contained 2 U/50 ul Pyrococcus furiosus dUTPase (PEF), 100 ng of human genomic DNA, 250 uM each dNTP, and 100 ng of each primer. For the 9 kb system, PCR reactions (50 ul) consisted of 80 ng Pfu, 1.5× cPfu DF-buffer, 2U Pyrococcus furiosus dUTPase (PEF), 200 ng of human genomic DNA, 500 uM each dNTP, and 200 ng of each primer. PCR reaction buffers were supplemented with 0.1% Triton X100 or with zwitterionic detergent(s).

[2] = tested on: Pfu fusion DNA polymerase; test: Endpoint PCR with Pfu fusion DNA polymerase, detergent/surfactant added to detergent-free PCR buffer; assay type: biochemical, Pyrococcus furiosus; conditions: for detergent concentration at which amplifications generated product yields (FIG. 1): individual detergent in fusion PCR buffer, genomic DNA targets, no product in absence of detergent
[3] = tested on: Pfu and Pfu fusion DNA polymerase; test: Endpoint PCR, enhancing detergents and detergent combinations (Table 2); assay type: biochemical, Pyrococcus furiosus; conditions: for Effective range, Detergent 1 (single detergent) / Optimal range, Detergent 1 (single detergent): endpoint PCR, detergent alone
[4] = tested on: Pfu fusion DNA polymerase; test: Accelerated stability study of Pfu fusion DNA polymerase in storage buffer, residual activity by 0.9 kb PCR; assay type: biochemical, Pyrococcus furiosus; conditions: detergent in storage buffer
Method: Accelerated stability studies were performed to illustrate the stabilizing effects of zwitterionic detergents. Pfu fusion DNA polymerase was purified in the absence of detergents and then diluted to 28 ng/ul in storage buffer lacking detergent or storage buffers containing either conventional non-ionic detergent (0.1% Igepal/0.1% Triton X100) or various zwitterionic detergents. Protein samples were stored at −20° C. or were heated at 95° C. for varying lengths of time. Residual activity was assayed by amplifying a 0.9 kb genomic target in PCR in fusion DF-buffer supplemented with either 0.1% Triton X100 or 0.1% CHAPSO/0.1% Anzergent 3-12.

[5] = 0.05% of the individual detergent
[6] = combination CHAPS (0.05, 0.1%) + Anz. 3-10 (0.1-0.5%)
[7] = combination CHAPSO (0.1%) + Anz. 3-10 (0.05-0.4%)
[8] = combination CHAPSO (0.1%) + Anz. 3-10 (0.05-0.5%)
[9] = combination CHAPS (0.05-0.5%) + CHAPSO (0.05-0.3%)
[10] = combination CHAPS (0.1%) + Anz. 3-12 (0.05-0.5%)

Row | SMILES | Effective range, concentration of each detergent in combination, SYBR Green QPCR [1] | Optimal range, concentration of each detergent in combination, SYBR Green QPCR [1] | Effective range, Detergent 1 (single detergent), SYBR Green QPCR [1] | Optimal range, Detergent 1 (single detergent), SYBR Green QPCR [1] | product yields on addition of zwitterionic detergent to PCR buffer (FIG. 5) (Pfu DNA polymerase) | PCR amplification with detergent alone (FIG. 2) [2, 5] | detergent concentration at which amplifications generated product yields (FIG. 1) [2] | Optimal range, concentration of each detergent in combination [3, 7] | Effective range, concentration of each detergent in combination [3, 8] | Effective range, Detergent 1 (single detergent) [3] | Optimal range, Detergent 1 (single detergent) [3] | QPCR amplification efficiency, total fluorescence and Ct values versus 0.1% Triton X100 (FIG. 7) [1] | amplification efficiency, total fluorescence and Ct values (FIG. 8) [1] | effect on stability of Pfu fusion DNA polymerase (FIG. 6) [4] | Effective range, concentration of each detergent in combination [3, 9] | other results
1 | CCCCCCCCCC[N+](C)(C)CCCS(=O)(=O)[O-] [Anzergent 3-10, n-Decyl-N,N-dimethyl-3-ammonio-1-propanesulfonate] | Anz. 3-10 (0.02-0.15%) | Anz. 3-10 (0.05-0.15%) | Anz. 3-10 (0.1-0.3%) | Anz. 3-10 (0.2%) | dramatically improved | little amplification | 0.4-0.8% | Anz. 3-10 (0.05-0.4%) | Anz. 3-10 (0.05-0.5%) | Anz. 3-10 (0.4-0.8%) | Anz. 3-10 (0.4-0.8%) | – | – | – | – | detergent concentration with favorable result on PCR amplification (FIG. 2) ([2]; individual detergent added to the reaction): 0.4% and 0.8%; Effective range, concentration of each detergent in combination [3, 6]: Anz. 3-10 (0.1-0.5%); Optimal range, concentration of each detergent in combination [3, 6]: Anz. 3-10 (0.1-0.5%)
2 | C[C@H](CCC(=O)NCCC[N+](C)(C)CCCS(=O)(=O)[O-])[C@H]1CC[C@H]2[C@@H]3[C@H](O)C[C@@H]4C[C@H](O)CC[C@]4(C)[C@H]3C[C@H](O)[C@]12C [CHAPS] | CHAPS (0.1%) | CHAPS (0.1%) | CHAPS (0.1-0.5%) | CHAPS (0.5%) | dramatically improved | – | – | – | – | CHAPS (0.2-0.8%) | CHAPS (0.2-0.4%) | comparable | favorable | enhance the stability | CHAPS (0.05-0.5%) | Optimal range, concentration of each detergent in combination ([3]; combination CHAPS (0.05%) + Anz. 3-12 (0.05-0.3%)): CHAPS (0.05%); Effective range, concentration of each detergent in combination ([3]; combination CHAPS (0.05%) + Anz. 3-12 (0.05-0.5%)): CHAPS (0.05%); Effective range, concentration of each detergent in combination [3, 10]: CHAPS (0.1%); Optimal range, concentration of each detergent in combination [3, 10]: CHAPS (0.1%)
3 | C[C@H](CCC(=O)NCCC[N+](C)(C)CC(O)CS(=O)(=O)[O-])[C@H]1CC[C@H]2[C@@H]3[C@H](O)C[C@@H]4C[C@H](O)CC[C@]4(C)[C@H]3C[C@H](O)[C@]12C (some centres unmarked) [CHAPSO] | – | – | CHAPSO (0.1-0.75%) | CHAPSO (0.2-0.5%) | dramatically improved | little amplification | 0.15-0.3% | CHAPSO (0.1%) | CHAPSO (0.1%) | CHAPSO (0.1-0.8%) | CHAPSO (0.15-0.35%) | comparable | favorable | enhance the stability | CHAPSO (0.05-0.3%) | effectiveness relative to CHAPS and Anzergent 3-10 (FIG. 5) (Pfu DNA polymerase; CHAPSO 0.05-0.2%, Anzergent 3-12 0.1-0.2%, in PCR buffer): somewhat more effective; PCR product with detergent alone (FIG. 3) [2, 5]: did not show observable levels of PCR product
